Measured values from patent US7432260B2, “Pyrimidine compounds” (Cyclacel Limted, priority 2002, dated 2008).

Tests used:
CDK2/cyclin E = CDK2/cyclin E (Homo sapiens, UniProt P24941); assay: Kinase assay CDK2/cyclin E; format: biochemical; details: Table 2; read-out: Kinase Inhibition IC50 CDK2 cyclin E
Procedure: (§1) Kinase assays. […] This was achieved by measurement of incorporation of radioactive phosphate from ATP into appropriate polypeptide substrates. Recombinant protein kinases and kinase complexes were produced or obtained commercially. Assays were performed using 96-well plates and appropriate assay buffers (typically 25 mM β-glycerophosphate, 20 mM MOPS, 5 mM EGTA, 1 mM DTT, 1 mM […], pH 7.4), into which were added 2-4 μg of active enzyme with appropriate substrates. The reactions were initiated by addition of Mg/ATP mix (15 mM MgCl2+100 μM ATP with 30-50 kBq per well of [γ-^32P]-ATP) and mixtures incubated as required at 30° C. Reactions were stopped on ice, followed by filtration through p81 filterplates or GF/C filterplates (Whatman Polyfiltronics, Kent, UK). After washing 3 times with 75 mM aq orthophosphoric acid, plates were dried, scintillant added and incorporated radioactivity measured in a scintillation counter (TopCount, Packard Instruments, Pangbourne, Berks, UK). Compounds for kinase assay were made-up as 10 mM stocks in DMSO and diluted into 10% DMSO inrassay buffer.

A549 = assay: 72-h MTT cytotoxicity assay A549; format: cell-based; details: Homo sapiens, A549, 72 h, Table 4
Procedure: (§2) MTT cytotoxicity assay. […] Standard 72-h MTT (thiazolyl blue; 3-[4,5-dimethylthiazol-2-yl]-2,5-diphenyltetrazolium bromide) assays were performed (Haselsberger, K.; Peterson, D. C.; Thomas, D. G.; Darling, J. L. Anti Cancer Drugs 1996, 7, 331-8; Loveland, B. E.; Johns, T. G.; Mackay, I. R.; Vaillant, F.; Wang, Z. X.; Hertzog, P. J. Biochemistry International 1992, 27, 501-10). In short: cells were seeded into 96-well plates according to doubling time and incubated overnight at 37° C. Test compounds were made up in DMSO and a 1/3 dilution series prepared in 100 μL cell media, added to cells (in triplicates) and incubated for 72 ho at 37° C. MTT was made up as a stock of 5 mg/mL in cell media and filter-sterilised. Media was removed from cells followed by a wash with 200 μL PBS.
(§3) MTT solution was then added at 20 μL per well and incubated in the dark at 37° C. for 4 h. MTT solution was removed and cells again washed with 200 μL PBS. MTT dye was solubilised with 200 μL per well of DMSO with agitation.

CDK2/cyclin A = CDK2/cyclin A (Homo sapiens, UniProt P24941); assay: Kinase assay CDK2/cyclin A; format: biochemical; details: Table 2; read-out: Kinase Inhibition IC50 CDK2 cyclin A
Procedure: as §1

CDK7/cyclin H = CDK7/cyclin H (Homo sapiens, UniProt P50613); assay: CDK7 assay; format: biochemical; details: Table 2; read-out: Kinase Inhibition IC50 CDK7 cyclin H
Sequence of CDK7/cyclin H (P50613 whole entry): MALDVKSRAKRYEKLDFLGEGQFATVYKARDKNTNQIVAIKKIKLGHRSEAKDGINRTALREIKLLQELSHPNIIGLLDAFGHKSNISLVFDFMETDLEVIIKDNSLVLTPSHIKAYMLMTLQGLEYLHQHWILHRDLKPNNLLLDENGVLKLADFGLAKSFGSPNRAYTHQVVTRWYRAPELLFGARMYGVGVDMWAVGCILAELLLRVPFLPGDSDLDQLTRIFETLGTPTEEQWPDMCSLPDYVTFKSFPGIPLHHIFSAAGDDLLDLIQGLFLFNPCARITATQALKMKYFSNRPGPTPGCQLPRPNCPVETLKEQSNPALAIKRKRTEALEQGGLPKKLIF
Procedure: as §1
(§4) CDK 7 and 9 assays. CTD peptide substrate (biotinyl-Ahx-(Tyr-Ser-Pro-Thr-Ser-Pro-Ser)4-NH2; 1-2 mg/mL) and recombinant human CDK7/cyclin H, CDK9/cyclin T1, or CDK9/cyclin K (0.5-2 μg) were incubated for 45 min at 30° C. in the presence of varying amounts of test compound in 20 mM MOPS pH 7.2, 25 mM β-glycerophosphate, 5 mM EGTA, 1 mM DTT, 1 mM sodium vanadate, 15 mM MgCl2, and 100 μM ATP (containing a trace amount of ^32PγATP) in a total volume of 25 μL in a 96-well microtiter plate. The reaction was stopped by placing the plate on ice for 2 min. Avidin (50 μg) was added to each well, and the plate was incubated at room temp for 30 min. The samples were transferred to a 96-well P81 filter plate, and washed (4×200 μL per well) with 75 mM phosphoric acid. Microscint 40 scintillation liquid (50 μL) was added to each well, and the amount of ^32P incorporation for each sample was measured using a Packard Topcount microplate scintillation counter.

HT29 = assay: 72-h MTT cytotoxicity assay HT29; format: cell-based; details: Homo sapiens, HT-29, 72 h, Table 4
Procedure: as §2, §3

CDK1/cyclin B = CDK1/cyclin B (Homo sapiens, UniProt P06493); assay: Kinase assay CDK1/cyclin B; format: biochemical; details: Table 2; read-out: Kinase Inhibition IC50 CDK1 cyclin B
Sequence of CDK1/cyclin B (P06493 whole entry): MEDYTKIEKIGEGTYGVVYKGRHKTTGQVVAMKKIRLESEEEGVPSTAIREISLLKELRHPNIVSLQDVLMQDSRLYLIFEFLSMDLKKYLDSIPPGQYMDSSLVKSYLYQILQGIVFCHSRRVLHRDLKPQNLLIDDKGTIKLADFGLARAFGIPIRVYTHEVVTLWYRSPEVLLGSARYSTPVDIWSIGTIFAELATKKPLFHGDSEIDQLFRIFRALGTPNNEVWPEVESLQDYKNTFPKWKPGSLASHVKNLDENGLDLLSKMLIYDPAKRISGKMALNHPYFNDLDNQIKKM
Sequence of CDK1/cyclin B (P14635 whole entry partner): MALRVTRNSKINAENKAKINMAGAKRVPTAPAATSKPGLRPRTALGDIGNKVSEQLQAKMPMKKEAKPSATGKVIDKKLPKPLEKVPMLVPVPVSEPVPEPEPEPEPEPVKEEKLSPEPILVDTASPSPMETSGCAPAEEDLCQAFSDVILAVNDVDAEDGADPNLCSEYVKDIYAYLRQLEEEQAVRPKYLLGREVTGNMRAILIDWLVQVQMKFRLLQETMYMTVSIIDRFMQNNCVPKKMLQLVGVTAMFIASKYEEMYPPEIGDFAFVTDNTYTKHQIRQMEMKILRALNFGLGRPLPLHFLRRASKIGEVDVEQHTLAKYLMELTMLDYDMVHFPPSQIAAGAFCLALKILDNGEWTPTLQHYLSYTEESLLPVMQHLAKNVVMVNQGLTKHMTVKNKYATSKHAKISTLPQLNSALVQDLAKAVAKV
Procedure: as §1

CDK4/cyclin D1 = CDK4/cyclin D1 (Homo sapiens, UniProt P11802); assay: Kinase assay CDK4/cyclin D1; format: biochemical; details: Table 2; read-out: Kinase Inhibition IC50 CDK4 cyclin D1
Sequence of CDK4/cyclin D1 (P11802 whole entry): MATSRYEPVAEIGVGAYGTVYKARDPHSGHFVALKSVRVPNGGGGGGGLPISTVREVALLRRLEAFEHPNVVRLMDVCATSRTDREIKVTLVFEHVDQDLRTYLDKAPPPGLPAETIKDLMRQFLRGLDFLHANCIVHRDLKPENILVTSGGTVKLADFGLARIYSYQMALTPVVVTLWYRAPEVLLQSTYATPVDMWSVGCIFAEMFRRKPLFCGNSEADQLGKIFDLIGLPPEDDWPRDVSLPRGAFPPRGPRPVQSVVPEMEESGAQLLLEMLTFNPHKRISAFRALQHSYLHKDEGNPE
Sequence of CDK4/cyclin D1 (P24385 whole entry partner): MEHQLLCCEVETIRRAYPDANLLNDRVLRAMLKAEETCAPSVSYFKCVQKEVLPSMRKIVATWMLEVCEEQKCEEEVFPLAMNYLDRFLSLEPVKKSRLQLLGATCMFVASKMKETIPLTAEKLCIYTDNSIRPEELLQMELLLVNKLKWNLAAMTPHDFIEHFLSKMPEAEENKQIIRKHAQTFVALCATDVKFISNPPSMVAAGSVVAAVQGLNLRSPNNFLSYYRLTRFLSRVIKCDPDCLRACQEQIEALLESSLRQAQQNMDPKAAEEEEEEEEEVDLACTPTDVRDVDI
Procedure: as §1

Saos-2 = assay: 72-h MTT cytotoxicity assay Saos-2; format: cell-based; details: Homo sapiens, SAOS-2, 72 h, Table 4
Procedure: as §2, §3

CDK9/cyclin T1 = CDK9/cyclin T1 (Homo sapiens, UniProt P50750); assay: CDK9 assay; format: biochemical; details: Table 2; read-out: Kinase Inhibition IC50 CDK9 cyclin T1
Sequence of CDK9/cyclin T1 (P50750 whole entry): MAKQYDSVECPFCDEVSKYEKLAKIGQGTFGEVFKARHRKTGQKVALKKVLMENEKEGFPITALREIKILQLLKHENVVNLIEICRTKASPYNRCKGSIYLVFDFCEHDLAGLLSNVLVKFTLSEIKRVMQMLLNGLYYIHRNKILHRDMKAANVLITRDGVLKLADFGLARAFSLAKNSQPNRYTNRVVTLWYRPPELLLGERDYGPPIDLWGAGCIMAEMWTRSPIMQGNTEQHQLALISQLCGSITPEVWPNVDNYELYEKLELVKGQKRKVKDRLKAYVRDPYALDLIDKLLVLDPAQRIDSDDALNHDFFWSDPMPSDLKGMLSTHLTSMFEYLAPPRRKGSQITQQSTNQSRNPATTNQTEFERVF
Sequence of CDK9/cyclin T1 (O60563 whole entry partner): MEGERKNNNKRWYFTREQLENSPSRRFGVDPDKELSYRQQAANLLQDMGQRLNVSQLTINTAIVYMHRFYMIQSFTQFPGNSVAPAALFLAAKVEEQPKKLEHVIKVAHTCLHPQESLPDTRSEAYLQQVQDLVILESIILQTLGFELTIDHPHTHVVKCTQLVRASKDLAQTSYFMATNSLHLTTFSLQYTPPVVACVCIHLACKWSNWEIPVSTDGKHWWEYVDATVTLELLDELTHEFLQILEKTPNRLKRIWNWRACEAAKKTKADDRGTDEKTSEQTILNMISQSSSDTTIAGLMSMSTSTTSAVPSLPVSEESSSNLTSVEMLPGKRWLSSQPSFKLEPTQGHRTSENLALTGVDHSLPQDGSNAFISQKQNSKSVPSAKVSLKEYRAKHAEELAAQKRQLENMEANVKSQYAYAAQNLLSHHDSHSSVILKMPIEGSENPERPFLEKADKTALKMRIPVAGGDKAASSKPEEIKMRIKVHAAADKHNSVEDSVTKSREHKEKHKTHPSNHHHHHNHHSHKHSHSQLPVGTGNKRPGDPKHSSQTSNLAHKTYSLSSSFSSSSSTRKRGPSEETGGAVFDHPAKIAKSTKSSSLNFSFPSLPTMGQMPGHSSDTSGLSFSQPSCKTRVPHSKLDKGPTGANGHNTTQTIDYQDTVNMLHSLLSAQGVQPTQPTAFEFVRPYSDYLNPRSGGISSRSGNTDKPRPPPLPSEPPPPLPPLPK
Procedure: as §1, §4

IC50 (CDK2/cyclin E) | IC50 (CDK2/cyclin A) | IC50 (CDK7/cyclin H) | IC50 (CDK1/cyclin B) | IC50 (CDK4/cyclin D1) | IC50 (CDK9/cyclin T1) | Compound | IC50 (A549) | IC50 (HT29) | IC50 (Saos-2)
1700 nM | 2900 nM | 9600 nM | 11000 nM | 400 nM | – | Cc1nc(C)c(-c2ccnc(Nc3ccc(NC(=O)CN4CCOCC4)cc3)n2)s1 [Compound 51, N-{4-[4-(2,4-Dimethyl-thiazol-5-yl)-pyrimidin-2-ylamino]-phenyl}-2-morpholin-4-yl-acetamide] | 1900 nM | 1400 nM | 1100 nM
1800 nM | 1300 nM | 2200 nM | 4200 nM | 620 nM | – | Cc1nc(C)c(-c2ccnc(Nc3ccc(N4CCN(CCOCCO)CC4)cc3)n2)s1 [Compound 7, [4-(2,4-Dimethyl-thiazol-5-yl)-pyrimidin-2-yl]-[4-(4′-2″-ethoxylethanolpiperazino)-phenyl]-amine] | 3900 nM | 1600 nM | 1600 nM
180 nM | – | – | – | 1100 nM | 530 nM | Cc1nc(NC(=O)CCCN)sc1-c1ccnc(Nc2cccc([N+](=O)[O-])c2)n1 [Compound 18, 4-Amino-N-{4-methyl-5-[2-(3-nitro-phenylamino)-pyrimidin-4-yl]-thiazol-2-yl}-butyramide] | 2500 nM | 2400 nM | 1100 nM
– | – | – | 51000 nM | 11000 nM | – | Cc1nc(C)c(-c2ccnc(Nc3ccc(N4CCN(S(C)(=O)=O)CC4)cc3)n2)s1 [Compound 10, [4-(2,4-Dimethyl-thiazol-5-yl)-pyrimidin-2-yl]-[4-(4-methanesulfonyl-piperazin-1-yl)-phenyl]-amine] | 11000 nM | 6400 nM | –
440 nM | 1300 nM | 2000 nM | 2500 nM | 180 nM | – | Cc1nc(C)c(-c2ccnc(Nc3ccc(NC(=O)Cn4cncn4)cc3)n2)s1 [Compound 52, N-{4-[4-(2,4-Dimethyl-thiazol-5-yl)-pyrimidin-2-ylamino]-phenyl}-2-[1,2,4]triazol-1-yl-acetamide] | 1600 nM | 1600 nM | 1100 nM
1200 nM | 2700 nM | – | 11000 nM | 32000 nM | 15000 nM | COc1cccc(Nc2nccc(-c3sc(NC(=O)CCN4CCOCC4)nc3C)n2)c1 [Compound 39, N-{5-[2-(3-Methoxy-phenylamino)-pyrimidin-4-yl]-4-methyl-thiazol-2-yl}-3-morpholin-4-yl-propionamide] | 800 nM | 720 nM | 950 nM
300 nM | – | – | – | 5600 nM | – | Cc1nc(NS(C)(=O)=O)sc1-c1ccnc(Nc2ccc(F)cc2)n1 [Compound 31, N-{5-[2-(4-Fluoro-phenylamino)-pyrimidin-4-yl]-4-methyl-thiazol-2-yl}-methanesulfonamide] | 2000 nM | 4100 nM | 810 nM
2100 nM | 1700 nM | 3500 nM | 12000 nM | 2600 nM | – | CC(=O)N(C)c1ccc(Nc2nccc(-c3sc(C)nc3C)n2)cc1 [Compound 48, N-{4-[4-(2,4-Dimethyl-thiazol-5-yl)-pyrimidin-2-ylamino]-phenyl}-N-methyl-acetamide] | 3000 nM | 2600 nM | 3800 nM
– | – | – | – | – | – | Cc1nc(NC(=O)CCl)sc1-c1ccnc(Nc2ccc(F)cc2)n1 [Compound 33, 2-Chloro-N-{5-[2-(4-fluoro-phenylamino)-pyrimidin-4-yl]-4-methyl-thiazol-2-yl}-acetamide] | 330 nM | 110 nM | 300 nM
76 nM | 520 nM | – | 1900 nM | 770 nM | 37 nM | Cc1nc(NC(=O)CCBr)sc1-c1ccnc(Nc2ccc(F)cc2)n1 [Compound 20, 3-Bromo-N-{5-[2-(4-fluoro-phenylamino)-pyrimidin-4-yl]-4-methyl-thiazol-2-yl}-propionamide] | 5800 nM | 6300 nM | –
110 nM | 100 nM | – | 120 nM | 630 nM | – | CNc1nc(C)c(-c2ccnc(Nc3cccc(CO)c3)n2)s1 [Compound 91, {3-[4-(4-Methyl-2-methylamino-thiazol-5-yl)-pyrimidin-2-ylamino]-phenyl}-methanol] | – | – | –
210 nM | – | – | 2000 nM | – | – | Cc1nc(NC(=O)[C@@H](N)[C@H](C)O)sc1-c1ccnc(Nc2cccc([N+](=O)[O-])c2)n1 [Compound 17, (2S,3S)-2-Amino-3-hydroxy-N-{4-methyl-5-[2-(3-nitro-phenylamino)-pyrimidin-4-yl]-thiazol-2-yl}-butyramide] | 1100 nM | 1200 nM | 1200 nM
2600 nM | 12000 nM | – | 36000 nM | 29000 nM | – | Cc1nc(NC(=O)CN2CCN(C(=O)OC(C)(C)C)CC2)sc1-c1ccnc(Nc2cccc([N+](=O)[O-])c2)n1 [Compound 28, 4-({4-Methyl-5-[2-(3-nitro-phenylamino)-pyrimidin-4-yl]-thiazol-2-ylcarbamoyl}-methyl)-piperazine-1-carboxylic acid tert-butyl ester] | 9900 nM | 6740 nM | 15000 nM
1100 nM | – | – | – | 440 nM | 5.8 nM | Cc1nc(NC(=O)CCl)sc1-c1ccnc(Nc2cccc([N+](=O)[O-])c2)n1 [Compound 24, 2-Chloro-N-{4-methyl-5-[2-(3-nitro-phenylamino)-pyrimidin-4-yl]-thiazol-2-yl}-acetamide] | 140 nM | 140 nM | 170 nM
– | – | – | 980 nM | 7 nM | – | CNc1nc(C)c(-c2ccnc(Nc3ccc(N4CCNCC4)cc3)n2)s1 [Compound 62, [4-(4-Methyl-2-methylamino-thiazol-5-yl)-pyrimidin-2-yl]-(4-piperazin-l-yl-phenyl)-amine] | 190 nM | 180 nM | 260 nM
68 nM | – | – | – | 2200 nM | 340 nM | Cc1nc(NC(=O)[C@@H](N)CO)sc1-c1ccnc(Nc2cccc([N+](=O)[O-])c2)n1 [Compound 14, (2S)-2-Amino-3-hydroxy-N-{4-methyl-5-[2-(3-nitro-phenylamino)-pyrimidin-4-yl]-thiazol-2-yl}-propionamide] | 990 nM | 730 nM | 1500 nM
28 nM | 1 nM | 11000 nM | 48 nM | 3800 nM | – | Cc1nc(C)c(-c2ccnc(Nc3ccc(S(C)(=O)=O)cc3)n2)s1 [Compound 85, [4-(2,4-Dimethyl-thiazol-5-yl)-pyrimidin-2-yl]-(4-methanesulfonyl-phenyl)-amine] | – | – | –
